From patent US11384066B1, “Heterocyclic compounds useful as aurora a selective inhibitors” (Jacobio Pharmaceuticals Co., Ltd., priority 2020, dated 2022) come the findings set out here.

One data set deals with Aurora A (Homo sapiens (Human), UniProt O14965). As to the kind of experiment: Aurora A kinase assay (mobility shift assay). The format is biochemical. As for the experimental part: (§1) Example A: Evaluation of Aurora a and Aurora B Inhibitory Effect—Kinase Assay
(§2) The inhibitory activities of a test compound against Aurora A and Aurora B were measured according to the following method.
(§3) The IC50 value of Aurora A and Aurora B kinase was performed by Sundia MediTech Co. Ltd. using Mobility shift assay.
(§4) • (1) Prepare a 1× kinase buffer [50 mM 4-(2-hydroxyethyl)-1-piperazineethanesulfonic acid (HEPES), PH 7.5, 0.01% Brij-35, 10 mM MgCl2, 2 mM dithiothreitol (DTT)]. • (2) Prepare compound:
(§5) The testing compound was dissolved with DMSO. The testing compound was diluted up to 100× final concentration in a 384-well plate. Transfer 250 nL of the compound dilution to a 384-well assay plate using Echo 550. 100% DMSO of 250 nL was added to the negative control well and the positive control well. • (3) Prepare a 2.5× enzyme solution using the above 1× kinase buffer. • (4) Add 10 μL of the 2.5× enzyme solution to the compound well and the positive control well of the 384-well assay plate. Add 10 μL of the 1× kinase buffer to the negative control well. • (5) The 384-well plate was centrifuged at 1000 rpm for 30 seconds and incubated at room temperature for 10 min. • (6) A mixture of ATP and Kinase substrate 21 with a final concentration of 25/15× was prepared by the 1× kinase buffer. • (7) Add 15 μL of the mixture of 25/15×ATP and kinase substrate solution 21 to start reaction. • (8) The 384-well plate was centrifuged at 1000 rpm for 30 seconds and incubated at room temperature. • (9) 30 μL of the stop and detection buffer was added to stop the kinase reaction and centrifuged at 1000 rpm for 30 seconds. • (10) Collect data on Caliper EZ ReaderII. Data Analysis:
(§6) Conversion %_sample is conversion rate data of samples. Conversion %_min is mean value of negative control (conversion rate data without enzyme activation). Conversion %_max is mean positive control (conversion rate data without compound).
(§7) The log of concentration is on the X axis, and the percentage inhibition is on the Y axis. Fit the Quantitative effect curves with log (inhibitor) vs. response—Variable slope in GraphPad Prism5 obtain IC50 values. Equation used is Y=Bottom+(Top−Bottom)/(1+10^((Log IC50−X)*HillSlope)).

A further data set concerns the target Aurora B (Homo sapiens (Human), UniProt Q96GD4). Kind of data set: Aurora B kinase assay (mobility shift assay). It counts as biochemical. Particulars: ratio of Aurora B IC50 to Aurora A IC50. The procedure:
as §1, §2, §3, §4, §5, §6, §7

A short description of the next data set: PK in rat. The format is in vivo. Particulars: rat, plasma, SD male rats; for clearance / Vd: IV: 3 mg/kg; for Vd: read-out: Vss; for AUC(0-t) / half-life / Cmax: PO: 10 mg/kg; for bioavailability: PO: 10 mg/kg vs IV: 3 mg/kg; for Cmax: read-out: Cmax. The procedure:
The compounds were dissolved into 10% DMSO, 30% PEG400, and 60% saline to obtain a solution. SD male rats were given the compound orally and intravenously. Then plasma samples were collected at 0 hour (pre-dose), 0.25, 0.5, 1, 2, 4, 7, 24 hours post-dose. Plasma drug concentration was detected by LC-MS/MS. Pharmacokinetic parameters were calculated using WinNonlin's software with non-compartmental model.

A further data set relates to NCI-H446 cells. Kind of data set: Cell proliferation assay (CellTiter-Glo), NCI-H446. The following applies: Homo sapiens, NCI-H446, 120 h, 5 days. The format is cell-based. The procedure: (§8) Example B: Cell Proliferation Assay
(§9) NCI-H2171 and NCI-H446 cell proliferation analysis were conducted by CellTiter-Glo (Promega, Cat #G1111). The cells will be harvested respectively during the logarithmic growth period and counted with hemocytometer. […] Adjust NCI-H2171 and NCI-H446 cells concentrations to 1.0×10^5 cells/mL with complete medium (RPMI-1640 medium supplemented with 10% (v/v) fetal bovine serum). 100 μL/cell suspensions were added to 96-well plates, and the final cell densities were 1.0×10^4 cells/well. The plate will be cultured overnight in 5% CO2 and 95% humidity at 37° C. The next day, the test compound was dissolved in DMSO as stock solution. Then the different concentrations of compound were added into 96-well plates. The plates will be cultured for 5 days, then measured by means of CellTiter-Glo assay. 50 μL/cell CellTiter-Glo reagent was added into 96-well plates. Shock incubation for 5 min and then stand incubation for 10 min at room temperature. Record the Luminosity values using an microplate spectrophotometer (Spark, Tecan). Fit the data using GraphPad 8.0 and obtain IC50 values.
(§10) Formula: Survival (%)=(Lumtest−Lummedia control)/(Lumcell control−Lummedia control)×100%

Another data set relates to NCI-H2171 cells. Kind of data set: Cell proliferation assay (CellTiter-Glo), NCI-H2171. Particulars: Homo sapiens, NCI-H2171, 120 h, 5 days. It counts as cell-based. As for the experimental part: as §8, §9, §10
The subject of data set [1] is NCI-H446 human small cell lung cancer xenograft. As to the kind of experiment: In vivo anti-tumor efficacy, NCI-H446 xenograft model. On the set-up: species or system BALB/c nude mice. Particulars: 15 mg/kg po., BID × 10days, QD × 19days, treatment 29 days, Table C does not say which xenograft (NCI-H446 or NCI-H69); for TV (mm^3): mean ± sem. As for the experimental part: This study is to examine the anti-tumor efficacy of test compounds in NCI-H446 and NCI-H69 human small cell lung cancer xenograft model in BALB/c nude mice. Each mouse was inoculated subcutaneously at the right flank region with NCI-H446 (3×10^6) and NCI-H69 cells (5×10^6) in 0.1 mL of PBS and Matrigel (1:1) for tumor development. The mouse were randomized according to tumor size and weight, the treatment began when the mean tumor size reached 100-200 mm^3. Anti-tumor activity was assessed according to relative tumor inhibition rate (TGI).
Tumor volumes were measured in two dimensions using a caliper, and the volume was expressed in mm^3 using the formula: V=0.5 a×b^2 where a and b are the long and short diameters of the tumor, respectively. Statistical analysis of difference in tumor volume among the groups were performed using one-way ANOVA. All data was analyzed using SPSS 22.0 software, p<0.05 was considered to be statistically significant.

Aurora B, sequence (Q96GD4 whole entry): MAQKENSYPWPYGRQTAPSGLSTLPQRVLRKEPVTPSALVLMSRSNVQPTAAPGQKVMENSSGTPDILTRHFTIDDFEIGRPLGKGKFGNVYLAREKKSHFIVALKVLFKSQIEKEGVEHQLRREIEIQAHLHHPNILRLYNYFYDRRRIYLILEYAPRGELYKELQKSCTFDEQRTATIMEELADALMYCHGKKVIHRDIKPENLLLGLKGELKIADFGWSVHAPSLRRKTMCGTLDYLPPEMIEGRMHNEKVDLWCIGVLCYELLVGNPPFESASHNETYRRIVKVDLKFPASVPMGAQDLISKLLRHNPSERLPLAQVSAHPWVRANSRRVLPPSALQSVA
Aurora A, sequence (O14965 whole entry): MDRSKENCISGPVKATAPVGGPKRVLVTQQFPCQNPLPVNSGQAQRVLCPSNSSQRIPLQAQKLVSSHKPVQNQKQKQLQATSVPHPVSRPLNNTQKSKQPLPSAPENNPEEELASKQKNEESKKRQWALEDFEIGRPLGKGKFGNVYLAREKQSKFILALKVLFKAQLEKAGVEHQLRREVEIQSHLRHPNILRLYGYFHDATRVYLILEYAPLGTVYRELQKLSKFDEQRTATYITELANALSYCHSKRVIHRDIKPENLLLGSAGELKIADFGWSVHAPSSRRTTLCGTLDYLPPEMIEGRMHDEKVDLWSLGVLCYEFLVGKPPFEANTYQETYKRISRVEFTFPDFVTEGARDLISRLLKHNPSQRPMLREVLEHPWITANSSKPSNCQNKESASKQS

On to `Cc1cc(Nc2nc(C[C@@]3(C(=O)O)CCN(Cc4cccc(Cl)c4F)[C@H](C)C3)ccc2F)[nH]n1` [Example 5, (2R,4R)-1-(3-chloro-2-fluorobenzyl)-4-((5-fluoro-6-((3-methyl-1H-pyrazol-5-yl)amino)pyridin-2-yl)methyl)-2-methylpiperidine-4-carboxylic acid], for which the IC50 at Aurora A is 0.59 nM. Also, at Aurora B, the “IC50 Ratio Aur B/Aur A” value stood at 1311. For the same compound, in “PK in rat”, the clearance is 2.74 mL/min/kg, the Vd came out at 0.56 L/kg, the AUC(0-t) is 179 µg·h/mL and the half-life was 4.25 h. Further, in the data set “PK in rat”, the bioavailability amounted to 168% and the Cmax was 26600 ng/mL. Besides, 80 nM corresponded to half-maximal inhibition in the data set on NCI-H446 cells (IC50). In the data set on NCI-H2171 cells, this compound returned a concentration for half-maximal inhibition (IC50) of 30 nM. Also, in data set [1], the “TGITV(%)” value is 98% and the “TV (mm^3)” value is recorded as 27 ± 5 mm^3.
Turning to `Cc1cc(Nc2ccc(F)c(C[C@@]3(C(=O)O)CCN(Cc4c(F)ccc(Cl)c4F)[C@H](C)C3)n2)n[nH]1` [Example 6, (2R,4R)-1-(3-chloro-2,6-difluorobenzyl)-4-((3-fluoro-6-((5-methyl-1H-pyrazol-3-yl)amino)pyridin-2-yl)methyl)-2-methylpiperidine-4-carboxylic acid], the IC50 at Aurora A turned out to be 0.33 nM. In addition, the “IC50 Ratio Aur B/Aur A” value on Aurora B was determined as 6112. Also, in the data set “PK in rat”, the clearance was determined as 0.67 mL/min/kg, the Vd is 0.18 L/kg, the AUC(0-t) was 215 µg·h/mL and the half-life was 6.3 h. Moreover, in the data set “PK in rat”, the bioavailability is 86% and the Cmax worked out at 34900 ng/mL. The same compound returned an IC50 in the data set on NCI-H446 cells of 103 nM. This compound displayed a half-maximal inhibitory concentration (IC50) in the data set with NCI-H2171 cells of 55 nM.
In the case of `Cc1cc(Nc2cc(C)c(F)c(C[C@@]3(C(=O)O)CCN(Cc4cccc(Cl)c4F)[C@H](C)C3)n2)n[nH]1` [Example 49, (2R,4R)-1-(3-chloro-2-fluorobenzyl)-4-((3-fluoro-4-methyl-6-((5-methyl-1H-pyraz-ol-3-yl)amino)pyridin-2-yl)methyl)-2-methylpiperidine-4-carboxylic acid], at Aurora A, the IC50 was determined as 0.7 nM. Moreover, the “IC50 Ratio Aur B/Aur A” value on Aurora B is 443. In addition, in the data set “PK in rat”, the clearance was 1.05 mL/min/kg, the Vd worked out at 0.22 L/kg, the area under the curve AUC(0-t) was found to be 202 µg·h/mL and the half-life was 2.95 h. In the data set “PK in rat”, the bioavailability was determined as 127% and the Cmax is 21000 ng/mL. Besides, the midpoint of inhibition with NCI-H446 cells, the IC50, lay at 24 nM. This compound also registered a half-maximal inhibitory concentration (IC50) in the data set on NCI-H2171 cells of 18 nM. In addition, in data set [1], the “TGITV(%)” value turned out to be 90% and the “TV (mm^3)” value stood at 160 ± 26 mm^3.
On to `Cc1cc(Nc2cc(C)c(F)c(C[C@@]3(C(=O)O)CCN(Cc4c(F)ccc(Cl)c4F)[C@H](C)C3)n2)n[nH]1` [Example 50, (2R,4R)-1-(3-chloro-2,6-di-fluorobenzyl)-4-((3-fluoro-4-methyl-6-((5-methyl-1H-pyra-zol-3-yl)amino)pyridin-2-yl)-methyl)-2-methylpiperidine-4-carboxylic acid], for which the IC50 at Aurora A amounted to 0.52 nM. For the same compound, the “IC50 Ratio Aur B/Aur A” value on Aurora B came to 845. In “PK in rat”, the clearance stood at 1.45 mL/min/kg, the Vd was found to be 0.26 L/kg, the AUC(0-t) came to 173 µg·h/mL and the half-life is 3.62 h. In the data set “PK in rat”, the bioavailability is 140% and the Cmax was determined as 16100 ng/mL. Also, in the data set with NCI-H446 cells, half-maximal inhibition (IC50) required 73 nM. The compound further displayed an IC50 in the data set with NCI-H2171 cells of 25 nM.
Take `Cc1cc(Nc2cc(Cl)c(F)c(C[C@@]3(C(=O)O)CCN(Cc4cccc(Cl)c4F)[C@H](C)C3)n2)n[nH]1` [Example 72, (2R,4R)-1-(3-chloro-2-fluorobenzyl)-4-((4-chloro-3-fluoro-6-((5-methyl-1H-pyrazol-3-yl)amino)pyridin-2-yl)methyl)-2-methylpiperidine-4-carboxylic acid]: the IC50 at Aurora A is 0.64 nM; in the data set with NCI-H446 cells it was 56 nM; in the data set with NCI-H2171 cells it was 23 nM. In addition, on Aurora B, the “IC50 Ratio Aur B/Aur A” value is listed as 582. In addition, in data set [1], the “TGITV(%)” value was 89%. Also, the “TV (mm^3)” value in data set [1] is reported as 176 ± 25 mm^3.
For `Cc1cc(Nc2nc(C[C@@]3(C(=O)O)CCN(Cc4cccc(Cl)c4F)[C@H](C)C3)cc(Cl)c2F)n[nH]1` [Example 73, (2R,4R)-1-(3-chloro-2-fluorobenzyl)-4-((4-chloro-5-fluoro-6-((5-methyl-1H-pyrazol-3-yl)amino)pyridin-2-yl)methyl)-2-methylpiperidine-4-carboxylic acid], the IC50 on Aurora A was determined as 0.76 nM; in the data set with NCI-H446 cells, 63 nM; with NCI-H2171 cells, 27 nM. In addition, the “IC50 Ratio Aur B/Aur A” value at Aurora B turned out to be 779.
In the case of `Cc1cc(Nc2nc(C[C@@]3(C(=O)O)CCN(Cc4cccc(Cl)c4F)[C@H](C)C3)cc(C)c2F)n[nH]1` [Example 78, (2R,4R)-1-(3-chloro-2-fluorobenzyl)-4-((5-fluoro-4-methyl-6-((5-methyl-1H-pyrazol-3-yl)amino)pyridin-2-yl)methyl)-2-methylpiperidine-4-carboxylic acid], the IC50 on Aurora A was found to be 0.37 nM. Also, the “IC50 Ratio Aur B/Aur A” value on Aurora B amounted to 1219. Moreover, in the data set “PK in rat”, the clearance is 0.585 mL/min/kg, the Vd stood at 0.22 L/kg, the AUC(0-t) is 236 µg·h/mL and the half-life is 4.61 h. Further, in the data set “PK in rat”, the bioavailability was found to be 85.8% and the Cmax stood at 28900 ng/mL. Moreover, in the data set with NCI-H446 cells, inhibition was half-maximal at 32 nM (IC50). The same compound gave an IC50 with NCI-H2171 cells of 13 nM. In data set [1], the “TGITV(%)” value came out at 96% and the “TV (mm^3)” value came out at 65 ± 14 mm^3.
